Assay results as given in US11986512B2, “Compositions and methods for cancer therapy” (Thetis Pharmaceuticals LLC, priority 2021, dated 2024).

Legend:
KPC cells = experiment: Orthotopic KPC model of pancreatic cancer, survival; format: in vivo, C57BL/6J male mice
Description: To expand our understanding of less than daily (LTD) dosing of bis RvE1 Mg-di-lysinate as a cancer therapy that could be used in combination with chemotherapy, bis RvE1 Mg-di-lysinate (Compound 1) was investigated in the orthotopic KPC model of pancreatic cancer. A total of fifteen (15) C57BL/6J male mice were implanted orthotopically with 5×10e5 living KPC cells into the pancreas. The mice were randomized (n=7-8) to treatment with bis RvE1 Mg-di-lysinate (300 ug/kg, SC, Q6D) with or without gemcitabine (50 mg/kg, IP, Q3D, up to 6 doses) one day after tumor cell implantation.

LLC cells [1] = experiment: Lewis lung carcinoma (LLC) model, with and without anti-PD1 or cisplatin; format: in vivo, C57BL/6J male mice; settings: monotherapy, 5 mg/kg, i.p, Q5D
Description: A representative compound of Formula IV, RvE1 magnesium dilysinate, was tested for efficacy in several mouse models of cancer, including the Panc2-H7 model of pancreatic cancer, the Lewis lung carcinoma (LLC) model, the MC38 model of colorectal cancer, and the B16F10 model of melanoma. These models are well established, highly tumorigenic syngeneic models in which murine cancer cell lines are injected subcutaneously (SC) into the dorsum of C57BL/6J mice. If left untreated, these tumors grow rapidly and lead to death or euthanasia, per protocol. As detailed below in Examples 1-9 and the accompanying figures, bis RvE1 Mg-di-lysinate (Compound 1) was unexpectedly effective as an anti-cancer agent in each of these model systems when administered in a less than daily (LTD) dosing regimen. […] Without being bound by any theory, the surprising efficacy of LTD dosing of resolvins in the cancer model systems described here may be the result of durable effects on the tumor microenvironment including changes in immune cell phenotype, vascularization, stromal phenotype, and antigen presentation, as well as durable effects on the T-cell compartment such as T-cell priming and increased tumor-infiltrating lymphocytes.
To expand our understanding of bis RvE1 Mg-di-lysinate as a cancer therapy that could be used in combination with other cancer therapies including immune checkpoint inhibitors, bis RvE1 Mg-di-lysinate monotherapy and in combination either anti-PD1 or cisplatin was investigated in the LLC model of non-small cell lung cancer, which is a model known to unresponsive to anti-PD1 therapy and moderately responsive to cisplatin. Yu et al., J Exp Clin Cancer Res. 2010; 29(1):46; Lechner et al., J Immunother. 2013; 36(9):477-489. A total of forty (40) C57BL/6J male mice were injected subcutaneously with 1×10e6 living LLC cells. […] In addition, bis RvE1 Mg-di-lysinate was evaluated in combination with anti-PD1 or cisplatin. […]

LLC cells [2] = experiment: Metastatic LLC resection model, perioperative (neo-adjuvant) treatment; format: in vivo, C57BL/6J male mice; settings: 5 mg/kg, i.p, Q6D, first dose 24 hours prior to surgery; compared to vehicle control
Description: To investigate the efficacy of LTD dosing of bis RvE1 Mg-di-lysinate as neo-adjuvant therapy, a study was conducted in the metastatic LLC resection model with treatment initiated in the perioperative window. A total of fifteen (15) C57BL/6J male mice were injected subcutaneously with 1×10e6 living LLC cells. Once tumors reached approximately 1200-1500 mme3 in size, the mice were randomized (n=4-8 per group) to treatment with vehicle (SC, Q6D), bis RvE1 Mg-di-lysinate (300 ug/kg, SC, Q6D), or cisplatin (5 mg/kg, i.p, Q6D), followed by surgical resection of the tumors. The mice in the vehicle and cisplatin groups received an initial dose twenty-four (24) hours prior to surgery, and the mice treated with bis RvE1 Mg-di-lysinate received an initial dose two (2) hours prior to surgery. All mice were sacrificed on day 19 following the death of three mice in the vehicle control group on day 18.

[3] = tested on: CD4+ and CD8+ cells in the liver; settings: administration of either RvD1 or RvE1; cited from earlier work
[4] = tested on: polymorphonuclear leukocyte (PMN) recruitment; settings: equimolar dose; cited from earlier work
HPV tumorigenesis = settings: cited from earlier work

**Q.** For `Nc1ccn([C@@H]2O[C@H](CO)[C@@H](O)C2(F)F)c(=O)n1` [gemcitabine, reference compound], which “mice alive as of the last observation (day 250)” value (KPC cells; gemcitabine monotherapy group) is on record?
**A.** The value was “zero of eight mice”.

**Q.** And the mean survival (KPC cells; gemcitabine monotherapy, 50 mg/kg, IP, Q3D, up to 6 doses)?
**A.** The mean survival was 25 days.

**Q.** Which “tumor volume (Day 11 vs Day 0)” value (LLC cells [1]) does the source give for `N.N.[Cl][Pt][Cl]` [cisplatin, reference compound] here?
**A.** The value was “failed to demonstrate efficacy as monotherapy compared to placebo”.

**Q.** What about the “number of lung metastases” value (LLC cells [2]) of the same compound?
**A.** The value was “failed to show a significant reduction”.

**Q.** And the “number of mice with lymph node metastasis” value (LLC cells [2])?
**A.** The value was “failed to show a significant reduction”.

**Q.** What does the source list for `CC[C@@H](O)/C=C/C=C\C[C@@H](O)/C=C/C=C/C=C\[C@@H](O)CCCC(=O)O` [RvE1, 5S,12R,18R-trihydroxy-6Z,8E,10E,14Z,16E-eicosapentaenoic acid]?
**A.** levels of CD4+ and CD8+ cells in the liver [3]: markedly downregulated levels of CD4+ and CD8+ cells in the liver; activity in zymosan-induced peritonitis (PMN recruitment) [4]: potently reduced polymorphonuclear leukocyte (PMN) recruitment

**Q.** With `CC/C=C\C[C@H](O)/C=C/C=C\C=C\C=C\[C@@H](O)[C@@H](O)C/C=C\CCC(=O)O` [RvD1, 7S,8R,17S-trihydroxy-4Z,9E,11E,13Z,15E,19Z-docosahexaenoic acid] as the compound, how does the “levels of CD4+ and CD8+ cells in the liver” value [3] read?
**A.** The value was “markedly downregulated levels of CD4+ and CD8+ cells in the liver”.

**Q.** What about the “tumor infiltration levels of CD4+ and CD8+ T cells” value (HPV tumorigenesis; in vivo) of the same compound?
**A.** Its value is “did not modify tumor infiltration levels of CD4+ and CD8+ T cells”.

**Q.** What about the tumor progression (HPV tumorigenesis; via modulated activity of tumor-associated neutrophils (PMN)) of the same compound?
**A.** Its tumor progression is “reduce tumor progression”.

**Q.** Which “activity in zymosan-induced peritonitis (PMN recruitment)” value [4] does the source give for `CCC(=O)/C=C/C=C\C[C@@H](O)/C=C/C=C/C=C\[C@@H](O)CCCC(=O)O` [Compound 18-oxo-RvE1, 18-oxo-RvE1] here?
**A.** Its value is “devoid of activity”.
